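All cell lines were grown in 96-well plates and treated with compound for 48 hours. GI50 marks 50% less growth.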 The source made the active and inactive calls. Rule as the data show it: active = GI50 up to about 1.1 µM and inactive = higher.
Key:
Experiment in all cases: NCI anticancer screen, dose series, 48 h
[1] = system: K562
[2] = system: UACC-62
[3] = system: NCI-H23
[4] = system: OVCAR-8
[5] = system: COLO 205
[6] = system: OVCAR-3
[7] = system: SK-MEL-5
[8] = system: RPMI-8226
[9] = system: OVCAR-4
[10] = system: LOX IMVI
[11] = system: IGROV-1
[12] = system: EKVX
[13] = system: MOLT-4
[14] = system: A549
[15] = system: UACC-257
[16] = system: SW-620
[17] = system: OVCAR-5
[18] = system: KM12
[19] = system: U-251
[20] = system: SF-539

Measured: GI50

CCOC(=O)c1csc(NC(=O)CN2CCN(C)CC2)n1
inactive: [1] > 100 µM | [2] > 100 µM | [3] > 100 µM | [4] > 100 µM | [5] > 100 µM | [6] > 100 µM | [7] > 100 µM | [8] > 100 µM | [9] > 100 µM | [10] > 100 µM | [11] > 100 µM | [12] > 100 µM | [13] > 100 µM | [14] > 100 µM | [15] > 100 µM | [16] > 100 µM | [17] > 100 µM | [18] > 100 µM | [19] > 100 µM

CCOc1ccc(/N=N/c2ccc3oc(=O)c(/C(C)=N\NC(=O)CC(=O)Nc4ccc(Cl)cc4)cc3c2)cc1
inactive: [1] 17.3 µM | [2] 10.1 µM | [3] 18.7 µM | [4] 16.1 µM | [5] 30.5 µM | [6] 15.5 µM | [7] 14.3 µM | [8] 16.2 µM | [9] 20.4 µM | [10] 13.2 µM | [11] 22 µM | [12] 8.36 µM | [20] 17.5 µM | [13] 4.09 µM | [14] 20.7 µM | [16] 17.8 µM | [17] 99.5 µM | [18] 19.2 µM | [19] 16.4 µM

CC(C)OP(=O)(OC(C)C)c1c(N)n[nH]c1Nc1ccccc1
inactive: [1] > 100 µM | [2] > 100 µM | [3] > 100 µM | [4] > 100 µM | [5] > 100 µM | [6] > 100 µM | [7] > 100 µM | [8] > 100 µM | [9] > 100 µM | [10] > 100 µM | [11] > 100 µM | [12] > 100 µM | [20] > 100 µM | [13] > 100 µM | [14] > 100 µM | [15] > 100 µM | [16] > 100 µM | [17] > 100 µM | [18] > 100 µM | [19] > 100 µM

CN1CCC23c4ccccc4NC1C21CCN(C)C3Nc2ccccc21
inactive: [1] 130 µM | [2] > 375 µM | [3] > 375 µM | [4] 59.4 µM | [5] > 338 µM | [6] > 375 µM | [7] > 174 µM | [8] 157 µM | [9] > 375 µM | [10] > 375 µM | [11] > 375 µM | [12] > 294 µM | [20] > 355 µM | [13] 151 µM | [14] > 375 µM | [15] 93.3 µM | [16] > 375 µM | [17] > 375 µM | [18] 268 µM | [19] > 375 µM

N=C(N)SCc1cccc([N+](=O)[O-])c1
inactive: [1] 22.1 µM | [2] 39.5 µM | [3] 30.5 µM | [4] 26.2 µM | [5] 21.5 µM | [6] 18.6 µM | [7] 32 µM | [8] 22.8 µM | [9] 30.3 µM | [10] 31.9 µM | [11] 57.7 µM | [12] 42.3 µM | [20] 25.5 µM | [13] 32.7 µM | [14] 39.7 µM | [15] 27.2 µM | [16] 36.6 µM | [17] 48.2 µM | [18] 24.4 µM | [19] 44.7 µM

COc1ccc(N2C(=O)C3c4[nH]c5ccccc5c4C4CCCCCCCCCC4C3C2=O)cc1 (stereo unspecified)
inactive: [1] > 10 µM | [2] > 10 µM | [3] > 10 µM | [4] > 10 µM | [5] > 10 µM | [6] > 10 µM | [7] > 10 µM | [8] > 10 µM | [9] > 10 µM | [10] > 10 µM | [11] > 10 µM | [12] > 10 µM | [20] 7.28 µM | [13] > 10 µM | [14] > 10 µM | [16] > 10 µM | [17] > 10 µM | [18] > 10 µM | [19] > 10 µM

O=C(NC(=O)c1cn(CCN2CCNCC2)c(=O)[nH]c1=O)OCc1ccccc1
inactive: [1] > 100 µM | [2] > 100 µM | [3] > 100 µM | [4] > 100 µM | [5] > 100 µM | [6] > 100 µM | [7] > 100 µM | [8] > 100 µM | [9] > 100 µM | [10] > 100 µM | [11] > 10 µM | [12] > 100 µM | [20] > 100 µM | [13] > 100 µM | [14] > 100 µM | [16] > 100 µM | [17] > 100 µM | [18] > 100 µM | [19] > 100 µM
